Test results as given in ChEMBL document CHEMBL1201862, “PubChem BioAssay data set” (2004).
Each block holds one compound with its values, some of them ahead of it. The source made the active and inactive calls.

Tests used:
BJ = assay: BJ-TERT fibroblast viability loss – cell-based, RAS-independent, luminescence, dose response (AID 1933); format: functional; conditions: Homo sapiens
[1] = DRD fibroblast viability loss – cell-based, non-viral oncogenic, luminescence, dose response (AID 1934); format: functional; conditions: Homo sapiens
[2] = biological target: T1, Serine/threonine-protein phosphatase (Candida dubliniensis (strain CD36 / CBS 7987 / NCPF 3949 / NRRLY-17841) (Yeast), UniProt B9W6M3); assay: Fluorescence Cell-Based Secondary Assay to Identify Inhibitors of Calcineurin. [Related pubchem assays (depositor defined):AID1979, AID2007]; format: functional
T1 sequence (B9W6M3 whole entry): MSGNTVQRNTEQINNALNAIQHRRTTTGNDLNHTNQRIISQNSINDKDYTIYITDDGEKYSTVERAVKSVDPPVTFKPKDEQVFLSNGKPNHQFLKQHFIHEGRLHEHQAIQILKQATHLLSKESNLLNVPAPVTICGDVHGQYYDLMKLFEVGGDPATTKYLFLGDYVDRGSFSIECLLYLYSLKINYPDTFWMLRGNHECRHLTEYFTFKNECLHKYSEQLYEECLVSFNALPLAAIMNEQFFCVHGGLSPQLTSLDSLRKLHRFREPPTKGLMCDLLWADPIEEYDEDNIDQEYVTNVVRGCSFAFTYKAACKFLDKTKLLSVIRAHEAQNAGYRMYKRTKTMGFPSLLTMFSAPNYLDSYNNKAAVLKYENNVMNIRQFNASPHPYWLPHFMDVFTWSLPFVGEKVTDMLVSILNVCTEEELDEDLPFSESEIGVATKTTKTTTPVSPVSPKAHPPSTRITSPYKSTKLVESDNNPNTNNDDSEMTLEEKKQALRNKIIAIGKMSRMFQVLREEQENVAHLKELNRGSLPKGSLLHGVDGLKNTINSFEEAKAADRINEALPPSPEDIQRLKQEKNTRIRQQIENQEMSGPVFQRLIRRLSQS

[3] = fluconazole-exposed Candida albicans growth modulators – fluorescence, retest, confirmation (AID 2467); format: functional, cell-based
[4] = biological target: ATP-dependent molecular chaperone HSP82 (Candida albicans (strain WO-1) (Yeast), UniProt C4YTQ8); assay: steroid-induced GRE reporter decrease in yeast – S. cerevisiae, luminescence, Hsp90 inhibitor project, dose response (AID 2400); format: functional, cell-based;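 further: beta-galactosidase luminescence from glucocorticoid response element reporter as proxy for Hsp90 function; inhibitor potency where signal loss means Hsp90 inhibition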
Chain of ATP-dependent molecular chaperone HSP82 (C4YTQ8 whole entry): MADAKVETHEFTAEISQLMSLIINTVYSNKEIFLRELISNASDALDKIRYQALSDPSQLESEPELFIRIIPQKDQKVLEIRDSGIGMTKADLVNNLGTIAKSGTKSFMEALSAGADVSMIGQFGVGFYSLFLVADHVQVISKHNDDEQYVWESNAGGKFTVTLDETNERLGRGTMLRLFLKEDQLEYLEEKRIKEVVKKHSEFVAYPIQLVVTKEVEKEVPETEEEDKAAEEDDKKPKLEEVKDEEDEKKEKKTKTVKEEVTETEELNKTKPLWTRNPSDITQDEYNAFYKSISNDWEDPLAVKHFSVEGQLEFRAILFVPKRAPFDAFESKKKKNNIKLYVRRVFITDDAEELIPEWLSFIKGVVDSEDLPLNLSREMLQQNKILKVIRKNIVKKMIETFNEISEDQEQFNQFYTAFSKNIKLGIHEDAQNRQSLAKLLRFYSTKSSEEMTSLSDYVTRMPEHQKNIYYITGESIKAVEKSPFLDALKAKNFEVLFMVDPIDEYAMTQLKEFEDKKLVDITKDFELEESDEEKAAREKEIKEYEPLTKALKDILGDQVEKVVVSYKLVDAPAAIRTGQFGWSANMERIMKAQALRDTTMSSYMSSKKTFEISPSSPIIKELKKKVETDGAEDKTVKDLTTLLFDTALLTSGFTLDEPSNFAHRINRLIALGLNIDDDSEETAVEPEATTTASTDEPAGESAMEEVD

[5] = biological target: Mast/stem cell growth factor receptor Kit (Homo sapiens, UniProt P10721); format: functional;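 further: KIT entry within a kinase panel assay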
[6] = biological target: Serine/threonine-protein kinase D2 (Homo sapiens, UniProt Q9BZL6); format: functional;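 further: measured against PRKD2 as one member of a kinome-wide kinase profiling panel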
[7] = biological target: Mitogen-activated protein kinase kinase kinase 20 (Homo sapiens, UniProt Q9NYL2); format: functional
[8] = biological target: cAMP-dependent protein kinase catalytic subunit PRKX (Homo sapiens, UniProt P51817); format: functional
[9] = biological target: Serine/threonine-protein kinase MRCK alpha (Homo sapiens, UniProt Q5VT25); format: functional
[10] = biological target: Tyrosine-protein kinase Srms (Homo sapiens, UniProt Q9H3Y6); format: functional;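 further: SRMS measured as one member of a kinome-wide kinase profiling panel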
[11] = biological target: Receptor tyrosine-protein kinase erbB-4 (Homo sapiens, UniProt Q15303); format: functional;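 further: ERBB4 member of a kinome-wide kinase profiling panel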
Chain of Receptor tyrosine-protein kinase erbB-4 (Q15303 whole entry, canonical isoform): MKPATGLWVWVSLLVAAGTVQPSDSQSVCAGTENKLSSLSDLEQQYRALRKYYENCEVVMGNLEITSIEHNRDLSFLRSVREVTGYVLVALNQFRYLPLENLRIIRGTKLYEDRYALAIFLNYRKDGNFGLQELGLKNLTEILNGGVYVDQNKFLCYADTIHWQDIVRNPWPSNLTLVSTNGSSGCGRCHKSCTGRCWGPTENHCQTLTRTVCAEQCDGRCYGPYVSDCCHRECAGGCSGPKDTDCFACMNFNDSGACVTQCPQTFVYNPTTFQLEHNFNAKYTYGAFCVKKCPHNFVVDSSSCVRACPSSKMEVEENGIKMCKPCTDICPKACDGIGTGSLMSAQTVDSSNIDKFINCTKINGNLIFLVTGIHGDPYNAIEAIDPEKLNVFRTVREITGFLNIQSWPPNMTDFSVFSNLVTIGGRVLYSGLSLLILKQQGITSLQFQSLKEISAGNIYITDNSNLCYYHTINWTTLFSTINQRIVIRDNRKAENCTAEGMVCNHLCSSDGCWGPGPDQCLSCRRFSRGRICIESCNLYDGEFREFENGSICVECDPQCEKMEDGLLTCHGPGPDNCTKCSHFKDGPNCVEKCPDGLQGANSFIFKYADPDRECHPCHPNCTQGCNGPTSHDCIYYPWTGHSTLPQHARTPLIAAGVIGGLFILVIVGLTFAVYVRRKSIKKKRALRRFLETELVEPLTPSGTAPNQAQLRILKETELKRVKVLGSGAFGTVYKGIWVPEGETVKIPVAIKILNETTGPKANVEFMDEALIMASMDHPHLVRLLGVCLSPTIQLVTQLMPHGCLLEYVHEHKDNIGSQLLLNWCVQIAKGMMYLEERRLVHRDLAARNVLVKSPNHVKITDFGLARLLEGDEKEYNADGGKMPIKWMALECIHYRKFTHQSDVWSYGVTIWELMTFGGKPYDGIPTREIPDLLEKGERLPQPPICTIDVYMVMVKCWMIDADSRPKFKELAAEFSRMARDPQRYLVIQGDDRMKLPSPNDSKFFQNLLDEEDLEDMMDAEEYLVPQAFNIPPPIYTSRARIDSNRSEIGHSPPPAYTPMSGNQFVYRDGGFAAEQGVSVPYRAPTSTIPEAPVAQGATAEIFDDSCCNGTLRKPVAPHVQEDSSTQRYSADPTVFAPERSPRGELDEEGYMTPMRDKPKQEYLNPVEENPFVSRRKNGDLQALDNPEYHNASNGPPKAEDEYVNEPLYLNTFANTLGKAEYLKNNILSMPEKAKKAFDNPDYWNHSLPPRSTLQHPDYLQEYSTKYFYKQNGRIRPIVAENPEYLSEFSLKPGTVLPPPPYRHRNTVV

[12] = biological target: Casein kinase I isoform gamma-1 (Homo sapiens, UniProt Q9HCP0); format: functional;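 further: measured as the CSNK1G1 member of a kinome profiling panel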
Chain of Casein kinase I isoform gamma-1 (Q9HCP0 whole entry, canonical isoform): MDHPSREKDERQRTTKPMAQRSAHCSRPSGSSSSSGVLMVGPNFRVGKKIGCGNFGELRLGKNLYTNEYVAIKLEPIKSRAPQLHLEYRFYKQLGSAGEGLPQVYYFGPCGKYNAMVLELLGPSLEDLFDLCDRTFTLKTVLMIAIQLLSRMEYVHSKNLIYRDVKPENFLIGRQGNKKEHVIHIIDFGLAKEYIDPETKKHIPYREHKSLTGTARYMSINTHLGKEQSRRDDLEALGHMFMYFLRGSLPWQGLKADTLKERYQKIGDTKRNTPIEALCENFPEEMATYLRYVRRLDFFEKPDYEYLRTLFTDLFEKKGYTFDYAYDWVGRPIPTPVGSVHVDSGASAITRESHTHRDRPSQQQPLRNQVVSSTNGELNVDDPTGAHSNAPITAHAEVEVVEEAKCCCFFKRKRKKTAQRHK

[13] = biological target: Serine/threonine-protein kinase pim-2 (Homo sapiens, UniProt Q9P1W9); format: functional;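 further: value comes from a broad kinase panel profiling study in which PIM2 was one of the panel members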
[14] = biological target: MAP kinase-activated protein kinase 3 (Homo sapiens, UniProt Q16644); format: functional;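 further: value comes from a kinome-wide profiling panel in which MAPKAPK3 is one of the panel members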
[15] = biological target: Calcium/calmodulin-dependent protein kinase type II subunit beta (Homo sapiens, UniProt Q13554); format: functional
[16] = biological target: RAC-alpha serine/threonine-protein kinase (Homo sapiens, UniProt P31749); format: functional;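 further: AKT1 affinity measured as one member of a kinome-wide kinase profiling panel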
Chain of RAC-alpha serine/threonine-protein kinase (P31749 whole entry): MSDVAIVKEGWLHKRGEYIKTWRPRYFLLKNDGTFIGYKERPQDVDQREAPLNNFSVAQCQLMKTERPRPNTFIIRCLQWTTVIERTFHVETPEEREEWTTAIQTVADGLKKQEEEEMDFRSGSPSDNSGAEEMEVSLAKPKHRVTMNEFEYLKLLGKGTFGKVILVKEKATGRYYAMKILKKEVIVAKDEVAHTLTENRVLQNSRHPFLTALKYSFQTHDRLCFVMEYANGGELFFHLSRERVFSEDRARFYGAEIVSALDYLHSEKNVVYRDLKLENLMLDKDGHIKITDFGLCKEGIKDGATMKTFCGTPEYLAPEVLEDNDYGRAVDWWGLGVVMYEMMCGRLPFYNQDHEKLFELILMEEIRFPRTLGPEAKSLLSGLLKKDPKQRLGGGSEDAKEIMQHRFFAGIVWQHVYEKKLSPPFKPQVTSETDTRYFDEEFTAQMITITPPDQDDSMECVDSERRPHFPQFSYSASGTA

[17] = biological target: Dual specificity tyrosine-phosphorylation-regulated kinase 1A (Homo sapiens, UniProt Q13627); format: functional;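 further: measured against DYRK1A as one member of a broad kinome profiling panel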
[18] = biological target: Serine/threonine-protein kinase Chk2 (Homo sapiens, UniProt O96017); format: functional;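 further: CHEK2 entry within a kinome-wide screening panel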
[19] = biological target: Tyrosine-protein kinase ABL1 (Homo sapiens, UniProt P00519); format: functional
[20] = biological target: Proto-oncogene tyrosine-protein kinase receptor Ret (Homo sapiens, UniProt P07949); format: functional;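 further: measured within a kinome-wide profiling panel, RET as the panel member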
[21] = biological target: Maternal embryonic leucine zipper kinase (Homo sapiens, UniProt Q14680); format: functional
[22] = biological target: Tyrosine-protein kinase Fyn (Homo sapiens, UniProt P06241); format: functional
[23] = biological target: Cell division cycle 7-related protein kinase (Homo sapiens, UniProt O00311); format: functional;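 further: value obtained from a kinome-wide kinase panel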
[24] = biological target: Tyrosine-protein kinase ITK/TSK (Homo sapiens, UniProt Q08881); format: functional;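 further: affinity for ITK measured as one member of a broad kinase panel profiling binding across the kinome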
[25] = biological target: Tyrosine-protein kinase receptor TYRO3 (Homo sapiens, UniProt Q06418); format: functional;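 further: TYRO3 value obtained as one member of a kinome-wide profiling panel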
Chain of Tyrosine-protein kinase receptor TYRO3 (Q06418 whole entry): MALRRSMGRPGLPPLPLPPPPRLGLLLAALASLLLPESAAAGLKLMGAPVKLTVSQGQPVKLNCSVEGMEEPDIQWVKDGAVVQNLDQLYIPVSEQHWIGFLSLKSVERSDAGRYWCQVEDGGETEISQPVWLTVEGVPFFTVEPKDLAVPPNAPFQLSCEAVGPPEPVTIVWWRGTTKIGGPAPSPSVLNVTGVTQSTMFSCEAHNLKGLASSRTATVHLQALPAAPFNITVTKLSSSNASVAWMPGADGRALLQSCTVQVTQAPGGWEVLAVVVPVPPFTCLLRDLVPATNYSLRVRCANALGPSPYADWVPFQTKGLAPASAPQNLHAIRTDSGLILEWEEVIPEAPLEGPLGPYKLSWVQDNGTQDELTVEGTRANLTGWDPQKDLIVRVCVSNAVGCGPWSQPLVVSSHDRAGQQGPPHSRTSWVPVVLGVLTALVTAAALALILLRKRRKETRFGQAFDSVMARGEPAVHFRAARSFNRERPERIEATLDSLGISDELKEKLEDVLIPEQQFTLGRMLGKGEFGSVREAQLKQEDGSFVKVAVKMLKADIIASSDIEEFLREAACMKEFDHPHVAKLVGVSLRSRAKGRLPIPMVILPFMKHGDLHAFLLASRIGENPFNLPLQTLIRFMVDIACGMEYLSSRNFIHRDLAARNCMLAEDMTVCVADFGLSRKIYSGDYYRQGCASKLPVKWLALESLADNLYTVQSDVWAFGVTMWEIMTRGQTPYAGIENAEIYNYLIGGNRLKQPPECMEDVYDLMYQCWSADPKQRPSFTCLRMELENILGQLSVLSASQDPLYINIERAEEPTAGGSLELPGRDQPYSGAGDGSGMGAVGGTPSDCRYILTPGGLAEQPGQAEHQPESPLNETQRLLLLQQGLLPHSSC

[26] = biological target: Tyrosine-protein kinase Fer (Homo sapiens, UniProt P16591); format: functional;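 further: FER tested as one member of a kinome panel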
[27] = biological target: Serine/threonine-protein kinase D3 (Homo sapiens, UniProt O94806); format: functional;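 further: determined within a kinase panel screen, with PRKCN as the panel member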
Chain of Serine/threonine-protein kinase D3 (O94806 whole entry): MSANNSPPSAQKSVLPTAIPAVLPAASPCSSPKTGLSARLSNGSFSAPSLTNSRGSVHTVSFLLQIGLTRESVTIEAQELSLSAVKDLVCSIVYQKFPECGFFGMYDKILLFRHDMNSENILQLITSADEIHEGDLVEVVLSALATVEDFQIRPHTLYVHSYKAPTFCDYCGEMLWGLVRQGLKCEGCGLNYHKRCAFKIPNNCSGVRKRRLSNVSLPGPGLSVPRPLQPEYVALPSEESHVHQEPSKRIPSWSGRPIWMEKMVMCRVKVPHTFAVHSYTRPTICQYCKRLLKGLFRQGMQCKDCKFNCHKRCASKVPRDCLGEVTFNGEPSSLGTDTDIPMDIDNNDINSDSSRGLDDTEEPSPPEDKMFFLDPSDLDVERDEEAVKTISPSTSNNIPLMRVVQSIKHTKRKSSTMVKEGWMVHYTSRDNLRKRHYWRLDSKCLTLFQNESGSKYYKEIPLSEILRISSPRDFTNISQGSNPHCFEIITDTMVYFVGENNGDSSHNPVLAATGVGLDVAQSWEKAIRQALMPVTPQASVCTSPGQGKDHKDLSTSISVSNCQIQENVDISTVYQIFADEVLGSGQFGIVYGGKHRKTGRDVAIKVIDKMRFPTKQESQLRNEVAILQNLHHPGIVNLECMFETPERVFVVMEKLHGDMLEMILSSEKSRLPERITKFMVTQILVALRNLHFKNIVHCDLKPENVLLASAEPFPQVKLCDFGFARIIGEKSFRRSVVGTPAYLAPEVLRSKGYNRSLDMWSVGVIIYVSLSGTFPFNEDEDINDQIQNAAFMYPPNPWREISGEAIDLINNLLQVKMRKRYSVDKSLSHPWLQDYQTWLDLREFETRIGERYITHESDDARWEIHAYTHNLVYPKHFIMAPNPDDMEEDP

[28] = biological target: Dual specificity tyrosine-phosphorylation-regulated kinase 4 (Homo sapiens, UniProt Q9NR20); format: functional
[29] = biological target: cAMP-dependent protein kinase catalytic subunit alpha (Homo sapiens, UniProt P17612); format: functional
[30] = biological target: Macrophage colony-stimulating factor 1 receptor (Homo sapiens, UniProt P07333); format: functional;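 further: value comes from the Navigating the Kinome screening panel, CSF1R member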
[31] = biological target: Serine/threonine-protein kinase PLK1 (Homo sapiens, UniProt P53350); format: functional;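 further: PLK1 measured as one member of a kinome-wide profiling panel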
[32] = biological target: Testis-specific serine/threonine-protein kinase 1 (Homo sapiens, UniProt Q9BXA7); format: functional
Chain of Testis-specific serine/threonine-protein kinase 1 (Q9BXA7 whole entry): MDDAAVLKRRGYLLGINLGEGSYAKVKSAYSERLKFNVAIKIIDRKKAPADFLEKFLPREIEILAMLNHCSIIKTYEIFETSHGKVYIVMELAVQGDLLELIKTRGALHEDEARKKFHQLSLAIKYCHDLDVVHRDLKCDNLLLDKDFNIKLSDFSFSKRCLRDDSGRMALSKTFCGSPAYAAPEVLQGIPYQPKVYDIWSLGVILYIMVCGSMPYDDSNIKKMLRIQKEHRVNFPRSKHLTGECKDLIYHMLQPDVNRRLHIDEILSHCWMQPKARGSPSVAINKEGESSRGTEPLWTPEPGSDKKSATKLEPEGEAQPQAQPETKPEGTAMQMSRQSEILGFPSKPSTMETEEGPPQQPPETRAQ

[33] = biological target: Serine/threonine-protein kinase PAK 4 (Homo sapiens, UniProt O96013); format: functional;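 further: value obtained within a kinome profiling panel in which PAK4 was one of the panel members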
[34] = biological target: Serine/threonine-protein kinase Nek2 (Homo sapiens, UniProt P51955); format: functional
[35] = biological target: Protein kinase C gamma type (Homo sapiens, UniProt P05129); format: functional
[36] = biological target: Mitogen-activated protein kinase kinase kinase kinase 5 (Homo sapiens, UniProt Q9Y4K4); format: functional;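 further: measured as one member of a kinome-spanning kinase panel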

Structure (SMILES): COc1ccc(-c2nnc(NC(=O)c3ccc(F)cc3)o2)cc1
EC50 (BJ): 61.7 µM (active)
EC50 [1]: 38.1 µM (active)
EC50 [2]: > 285 µM (inactive)
EC50 [3]: 0.305 µM (active)
EC50 [4]: > 150 µM (inactive)

Ki [5]: > 1.26 µM (inactive)
Ki [6]: 2 µM (active)
Ki [7]: > 7.94 µM (inactive)
Ki [8]: 0.0501 µM (active)
Ki [9]: 0.158 µM (active)
Ki [10]: > 1.58 µM (inactive)
Ki [11]: > 3.98 µM (inactive)
Ki [12]: > 6.31 µM (inactive)
Ki [13]: > 1.58 µM (inactive)
Ki [14]: > 10 µM (inactive)
Ki [15]: 7.94 µM (active)
Ki [16]: 0.501 µM (active)
Ki [17]: > 6.31 µM (inactive)
Ki [18]: > 1.58 µM (inactive)
Ki [19]: > 0.631 µM (inactive)
Ki [20]: > 1.26 µM (inactive)
Ki [21]: > 1.58 µM (inactive)
Ki [22]: > 0.794 µM (inactive)
Ki [23]: 0.0794 µM (active)
Ki [24]: > 1.58 µM (inactive)
Ki [25]: > 2 µM (inactive)
Ki [26]: > 1.58 µM (inactive)
Ki [27]: 2.51 µM (active)
Ki [28]: > 7.94 µM (inactive)
Ki [29]: 0.0316 µM (active)
Ki [30]: > 2.51 µM (inactive)
Ki [31]: > 7.94 µM (inactive)
Ki [32]: 0.0501 µM (active)
Ki [33]: > 5.01 µM (inactive)
Ki [34]: > 10 µM (inactive)
Ki [35]: 0.251 µM (active)
Ki [36]: 1.58 µM (active)
Structure (SMILES): CCn1c(-c2nonc2N)nc2cnc(Oc3cccc(NC(=O)c4ccc(OCCN5CCOCC5)cc4)c3)cc21 [GSK-269962A]
